# Test results reported in patent US12558331B2, “Pregabalin formulations and use thereof” (priority 2019, dated 2026).
# What was measured:
# cats = assay: Randomized, double-blind, placebo-controlled clinical study: transportation and veterinary visit anxiety and fear in cats; assay type: in vivo, cat; settings: 5 mg/kg orally
# Method: A randomized, double-blind, placebo-controlled parallel-group, multicenter clinical study was conducted for evaluating the efficacy and safety of pregabalin for the treatment or prevention of transportation and veterinary visit anxiety and fear in cats. Cats were randomised to receive either 5 mg/kg (n=108) of pregabalin or placebo (n=101) orally as a single dose approximately 90 minutes before transportation to the veterinary clinic.
# The study had two primary efficacy variables. The first primary variable was the owner's assessment of the treatment effect based on the cat's stress, anxiety and/or fear during transportation in a car. The second primary variable was the investigator's assessment of the treatment effect based on the cat's stress, anxiety and/or fear during clinical examination at the veterinary clinic. Both were assessed using a numerical rating scale with the scores 1-5.
# [1] = Water solubility of pregabalin as the function of pH at 5° C.; assay type: physicochemical
# Method: Water solubility at 5° C. of pregabalin as such and with the addition of 2.0 mg/ml sodium benzoate was measured as the function of pH.
# [2] = single dose approximately 90 minutes before transportation
smiles,measurement,setting,value
CC(C)C[C@H](CN)CC(=O)O [pregabalin],Ataxia and sedation,cats; single dose,did not produce marked ataxia or excessive sedation
same,"Investigator's assessment of treatment effect during clinical examination, % of cats, Score 1 Excellent",cats; [2],14.3%
same,"Investigator's assessment of treatment effect during clinical examination, % of cats, Score 2 Good",cats; [2],41.0%
same,"Investigator's assessment of treatment effect during clinical examination, % of cats, Score 3 Fair",cats; [2],27.6%
same,"Investigator's assessment of treatment effect during clinical examination, % of cats, Score 4 Poor",cats; [2],10.5%
same,"Investigator's assessment of treatment effect during clinical examination, % of cats, Score 5 Very poor",cats; [2],6.7%
same,"Owner's assessment of treatment effect during transportation, % of cats, Score 1 Excellent",cats; [2],17.1%
same,"Owner's assessment of treatment effect during transportation, % of cats, Score 2 Good",cats; [2],34.3%
same,"Owner's assessment of treatment effect during transportation, % of cats, Score 3 Fair",cats; [2],23.8%
same,"Owner's assessment of treatment effect during transportation, % of cats, Score 4 Poor",cats; [2],14.3%
same,"Owner's assessment of treatment effect during transportation, % of cats, Score 5 Very poor",cats; [2],10.5%
same,Water solubility as the function of pH,"[1]; pregabalin as such, when pH is lower than about 4.4, FIG. 1",increased significantly
same,Physical stability (precipitation of pregabalin),"[1]; with addition of 2.0 mg/ml sodium benzoate, FIG. 1",further improved the physical stability
